Measured values from patent US9475848B2 (priority 2012, dated 2016).
“And” between values parts separate entries of the source, which are not always exact repeats. Identical values can stand only once. Like-named read-outs stand apart in the source and are kept apart here.

Experiments:
[1] = test system: pertussis toxin (PT) production; type: cell-based, Bordetella pertussis
B. pertussis [2] = type: cell-based, Bordetella pertussis
Bordetella pertussis = type: cell-based; settings: for accumulation of bvg^− cells: MgSO4 20 mM (series C), niacin 0.604 g/L (series B) or both, compared with series A
B. pertussis [3] = test system: B. pertussis
[4] = COQ255: niacin 0.604 g/L in first two pre-cultures, 0.004 g/L thereafter

## O=P([O-])(O)O.[K+] [KH2PO4]
[1]
  PT concentration at end of fermentation: 19 mg/L and 13 mg/L
  Specific PT production at end of fermentation: 2.0 mg L^−1 mg L^−1 OD650 nm^−1 and 1.4 mg L^−1 OD650 nm^−1
  decrease in PT production compared to COQ280: 32%
B. pertussis [2]; COQ279: KH2PO4 0.8 g/L
  Final biomass (OD650 nm): 9.2 OD650 nm
B. pertussis [2]; COQ280: KH2PO4 0.5 g/L
  Final biomass (OD650 nm): 9.7 OD650 nm

## N[C@@H](CS)C(=O)O [L-cysteine]
[1]
  PT concentration at end of fermentation: 19 mg/L and 13 mg/L
  Specific PT production at end of fermentation: 2.0 mg L^−1 mg L^−1 OD650 nm^−1 and 1.2 mg L^−1 OD650 nm^−1
  decrease in PT production compared to COQ280: 32%
B. pertussis [2]; COQ280: L-cysteine 0.04 g/L
  Final biomass (OD650 nm): 9.7 OD650 nm
B. pertussis [2]; COQ396: L-cysteine 0.2 g/L
  Final biomass (OD650 nm): 11.0 OD650 nm

## O=S(=O)([O-])[O-].[Mg+2] [MgSO4]
Bordetella pertussis
  accumulation of bvg^− cells: significantly lower accumulation of bvg^− cells
Bordetella pertussis; Series C: MgSO4 20 mM, niacin 0.004 g/L, end of fourth culture, start 1%
  Proportion of bvg^− cells: 2%
Bordetella pertussis; Series C: MgSO4 20 mM, niacin 0.004 g/L, end of third culture, start 1%
  Proportion of bvg^− cells: 3%

## O=C(O)c1cccnc1 [niacin]
Bordetella pertussis
  number of generations for which control of bvg^− take-over is effective: up to 100 generations
  accumulation of bvg^− cells: significantly lower accumulation of bvg^− cells
Bordetella pertussis; Series A: niacin 0.004 g/L, no MgSO4, end of fourth culture, start 1%
  Proportion of bvg^− cells: 8%
Bordetella pertussis; Series A: niacin 0.004 g/L, no MgSO4, end of third culture, start 1%
  Proportion of bvg^− cells: 5%
Bordetella pertussis; Series B: niacin 0.604 g/L, no MgSO4, end of fourth culture, start 1%
  Proportion of bvg^− cells: 2%
Bordetella pertussis; Series B: niacin 0.604 g/L, no MgSO4, end of third culture, start 1%
  Proportion of bvg^− cells: 1%
Bordetella pertussis; Table 4 Series A: niacin 0.004 g/L, end of first culture, start 6%
  Proportion of bvg^− cells: 9%
Bordetella pertussis; Table 4 Series A: niacin 0.004 g/L, end of second culture, start 6%
  Proportion of bvg^− cells: 14%
Bordetella pertussis; Table 4 Series A: niacin 0.004 g/L, end of third culture, start 6%
  Proportion of bvg^− cells: 24%
Bordetella pertussis; Table 4 Series B: niacin 0.021 g/L, end of first culture, start 6%
  Proportion of bvg^− cells: 9%
Bordetella pertussis; Table 4 Series B: niacin 0.021 g/L, end of second culture, start 6%
  Proportion of bvg^− cells: 15%
Bordetella pertussis; Table 4 Series B: niacin 0.021 g/L, end of third culture, start 6%
  Proportion of bvg^− cells: 19%
Bordetella pertussis; Table 4 Series C: niacin 0.113 g/L, end of first culture, start 6%
  Proportion of bvg^− cells: 10%
Bordetella pertussis; Table 4 Series C: niacin 0.113 g/L, end of second culture, start 6%
  Proportion of bvg^− cells: 14%
Bordetella pertussis; Table 4 Series C: niacin 0.113 g/L, end of third culture, start 6%
  Proportion of bvg^− cells: 21%
Bordetella pertussis; Table 4 Series D: niacin 0.604 g/L, end of first culture, start 6%
  Proportion of bvg^− cells: 5%
Bordetella pertussis; Table 4 Series D: niacin 0.604 g/L, end of second culture, start 6%
  Proportion of bvg^− cells: 5%
Bordetella pertussis; Table 4 Series D: niacin 0.604 g/L, end of third culture, start 6%
  Proportion of bvg^− cells: 4%
Bordetella pertussis; low niacin concentrations
  controlling the take-over of bvg^− cells: less effective
Bordetella pertussis; niacin 0.6 g/L rather than 0.004 g/L, independently of initial proportion of bvg− cells
  control of the take-over of bvg^− cells: effectively control the take-over of bvg^− cells
Bordetella pertussis; niacin 0.604 g/L, up to 15 generations
  bvg^− take-over: no bvg^− take-over was observed
[1]
  PT concentration at end of fermentation: 22.8 mg/L
  Specific PT production at end of fermentation: 3.2 mg L^−1 OD650 nm^−1
B. pertussis [2]; [4]
  Final biomass (OD650 nm): 7.2 OD650 nm
  Total fermentation time: 43 h
B. pertussis [3]
  Final proportion of bvg^− in 20 L-fermentor: 13%
  Initial proportion of bvg^− in 20 L-fermentor: 3%

## O=C(O)[C@@H]1CCCN1 [proline]
B. pertussis [2]; COQ278: proline 12 g/L, sodium glutamate 7 g/L, NaCl 0 g/L
  Final biomass (OD650 nm): 11.3 OD650nm
B. pertussis [2]; COQ280: proline 1 g/L, sodium glutamate 20 g/L, NaCl 0 g/L
  Final biomass (OD650 nm): 9.7 OD650nm
